Read-outs that look alike come from different tables or passages of the source.

The subject of the test is female Yellow Fever mosquitos (Aedes aegypti). The test is classed as in vivo. How it is done:
Mosquitos are exposed to the treatments applied to 3-cm diameter collagen membranes placed over warmed, blood-filled wells in a multi-well plate. The wells are pre-warmed to 96-100° F., and then citrated whole blood with ATP is poured into each well to completely fill. The membrane is applied and secured using vacuum grease. To each membrane 25 microliters of the test solution is applied, and the solution is allowed to dry. The plate is then placed into a plastic box enclosure having 250 adult female mosquitos. The number of instances of a mosquito probing the membrane is recorded during a 20-minute period. The entire procedure is repeated until five replicates are complete. Treatment positions in the plates are rotated between each replicate to eliminate any positional bias. Fresh blood and mosquitoes are used in each replicate. Percent repellency is calculated by comparison to a negative control membrane treated only with water.
This is compared to a solution of DEET in IPA at 20% by weight as a control. The procedure is as described for Example 8.

Where [1] appears, read: Example 8, 25 microliters on membrane, 20-minute period, five replicates, DEET as 20% isopropanol solution.
[2] abbreviates: Example 8, by comparison to water-treated membrane, DEET as 20% isopropanol solution.
[3] abbreviates: Example 10, 20% by weight in IPA.

With citronellol dimer acetate [Sample B], the “Mosquito Probes” value under setting [1] is 0.6. In addition, under setting [2], the “% Repellency” value is 98.8%.
On to `CCN(CC)C(=O)c1cccc(C)c1` [DEET, di-ethyl-meta-toluamide], for which the “Mosquito Probes” value was found to be 0 under setting [1] and 0 under setting [3]. Moreover, the “% Repellency” value is, setting by setting: under setting [2], 100%; under setting [3], 100%.
Take Citronellol dimer [Sample A]: under setting [1], the “Mosquito Probes” value is given as 0.4. Besides, the “% Repellency” value under setting [2] is recorded as 99.1%.

Values taken from patent US12195588B2, “Polyether derivatives, uses, and methods of making the same” (P2 Science, Inc., priority 2017, dated 2025).
